Source: patent US4892947A, “3(2H)Pyridazinone, process for its preparation and anti-allergic agent containing it” (Nissan Chemical Industries Ltd., priority 1985, dated 1990)

How the values were obtained:
[1] = system: LTC4; assay: LTC4 antagonism in isolated guinea-pig trachea (method (i)); format: cell-based; settings: Cavia porcellus, 5 min; 10^-5 g/ml test compound, 5 min prior to LTC4 (2×10^-8 g/ml)
Experimental: (§1) (i) LTC4 and LTD4 antagonisms in guinea-pig trachea
(§2) Antagonisms for LTC4 and LTD4 were determined in isolated guinea-pig trachea prepared as spiral strip. Tracheal preparations were suspended under 1 g tension in 10 ml organ baths and they were incubated for 1 hr prior to use. Contractile responses to LTC4 (2×10^-8 g/ml) and LTD4 (2×10^-8 g/ml) were obtained after the maximal response to histamine (10^-4 M). Test compounds dissolved in 100% dimethyl sulfoxide were added to the organ baths (final concentration of 10^-5 g/ml or 10^-6 g/ml) 5 min prior to LTC4 and LTD4 addition, and then contractile responses to LTC4 and LTD4 were compared with those of control which was obtained from a paired trachea in the absence of test compounds. LTC4 - and LTD4 -induced contractions were expressed as a percentage of the maximal response to histamine. The antagonism was determined as follows:
(§3) Antagonism (%)=(1.0-% contraction in test/% contraction in control)×100

[2] = system: LTD4; assay: LTD4 antagonism in isolated guinea-pig trachea (method (i)); format: cell-based; settings: Cavia porcellus, 5 min; for inhibition at 10 µg/mL: 10^-5 g/ml test compound, 5 min prior to LTD4 (2×10^-8 g/ml); for inhibition at 1 µg/mL: 10^-6 g/ml test compound, Test method (i) (asterisk in Table 4), 5 min prior to LTD4
Experimental: as §1, §2, §3

[3] = system: antigen-induced anaphylactic bronchoconstriction in passively sensitized guinea-pig; assay: Anaphylactic bronchoconstriction in passively sensitized guinea-pig, i.v. test; format: in vivo; settings: i.v. 2 mg/kg, 1 min prior to EA challenge (10 mg/kg)
Experimental: (§4) (iii) Effect on anaphylactic bronchoconstriction in passively sensitized guinea-pig
Male guinea-pigs (350-450 g) were passively sensitized with intravenous (i.v.) injection of 0.125 ml rabbit anti-EA (egg albumin) serum (Cappel Laboratories) 1 to 2 days preceding the experiment. […] Sensitized guinea-pigs were anaesthetized with intraperitoneal injection of urethane (1.5 g/kg). The right jugular vein was cannulated for the administration of the all agents and trachea was cannulated to record total pulmonary resistance. Guinea-pigs were artificially ventilated by a small animal respirator (Shinano, Model SN-480-7) set at a stroke volume of 4.5 ml and a rate of 50 breaths per min. […] The increase in air overflow volume was expresssed as a percentage of the maximum bronchoconstriction obtained by clamping off the trachea. Following surgical preparation, the animals were pretreated with indomethacin (0.2 mg/kg, 10 min), pyrilamine (2 mg/kg, 6 min) and propanolol (0.1 mg/kg, 5 min) prior to the EA challenge (0.1 or 10 mg/kg). All test compounds were administered intraveneously or orally before the EA challenge. Inhibition (%) of bronchoconstriction was determined as follows: Inhibition (%)=(1.0%-maximum bronchoconstriction in test/% maximum bronchoconstriction in control)×100. […] The number of test animals was 4 in the i.v. test and 6 in the p.o. test.
(a) The i.v. test: A test compound (2 mg/kg) was suspended or dissolved in 3% Tween 80 and intraveneously administered 1 min prior to the EA challlenge (10 mg/kg).

[4] = system: ddY strain male mice; assay: Acute toxicity test, intraperitoneal (Test method-(1)); format: in vivo; settings: 7 days
Experimental: The lethal ratio was determined in ddY strain male mice (4 weeks old) at 7 days after the intraperitoneal injection of test compounds.

[5] = system: antigen-induced anaphylactic bronchoconstriction in passively sensitized guinea-pig; assay: Anaphylactic bronchoconstriction in passively sensitized guinea-pig, p.o. test; format: in vivo; settings: for Inhibition (%) of bronchoconstriction: 2 hours prior to EA challenge (0.2 mg/kg)
Experimental: as §4
Male guinea-pigs (350-450 g) were passively sensitized with intravenous (i.v.) injection of 0.125 ml rabbit anti-EA (egg albumin) serum (Cappel Laboratories) 1 to 2 days preceding the experiment. Antigen-induced anaphylactic bronchoconstrictions were measured by modified method of Konzett and Rossler (Arch. Exp. Path. Pharmak., 195, 71, 1940). Sensitized guinea-pigs were anaesthetized with intraperitoneal injection of urethane (1.5 g/kg). The right jugular vein was cannulated for the administration of the all agents and trachea was cannulated to record total pulmonary resistance. Guinea-pigs were artificially ventilated by a small animal respirator (Shinano, Model SN-480-7) set at a stroke volume of 4.5 ml and a rate of 50 breaths per min. The change in pulmonary resistance was measured with a pressure transducer (Nihon Kohden, Model TP-602T) connected to a T-tube on the tracheal cannula. The increase in air overflow volume was expresssed as a percentage of the maximum bronchoconstriction obtained by clamping off the trachea. Following surgical preparation, the animals were pretreated with indomethacin (0.2 mg/kg, 10 min), pyrilamine (2 mg/kg, 6 min) and propanolol (0.1 mg/kg, 5 min) prior to the EA challenge (0.1 or 10 mg/kg). All test compounds were administered intraveneously or orally before the EA challenge. Inhibition (%) of bronchoconstriction was determined as follows: Inhibition (%)=(1.0%-maximum bronchoconstriction in test/% maximum bronchoconstriction in control)×100. The maximum bronchoconstriction was btained within 30 min after the EA challenge. The number of test animals was 4 in the i.v. test and 6 in the p.o. test.
(b) The p.o. test: A test compound was suspended in 5% gum arabic and orally administered 2 hours prior to the EA challenge (0.2 mg/kg). The reaction of the control was 62±6%.

[6] = system: ddY strain male mice; assay: Acute toxicity test, oral (Test method-(2)); format: in vivo; settings: 7 days
Experimental: The lethal ratio was determined in ddY strain male mice (4 weeks old) at […] 7 days after the oral administration of test compounds.

[7] = system: LTD4; assay: LTD4 antagonism in isolated guinea-pig trachea with indomethacin (method (ii)); format: cell-based; settings: Cavia porcellus, 0.5 h, 10^-6 g/ml test compound, 30 min prior to LTD4
Experimental: (ii) LTD4 antagonism in guinea-pig trachea
Antagonism for LTD4 was determined in isolated guinea-pig trachea prepared as spiral strip. Tracheal preparations were suspended under 1 g tension in 10 ml organ baths containing […] of indomethacin and they were incubated for 1 hr prior to use. Contractile responses to LTD4 (2×10^-8 g/ml) were obtained after the maximal respone to hitamine (10^-4 M). Test compounds dissolved in 100% dimethyl sulfoxide were added to the organ baths (final concentration of 10^-6 g/ml) 30 min prior to LTD4 addition, and then contractile responses to LTD4 were compared with those of control which was obtained from a paired trachea in the absence of test compounds. LTD4 -induced contractions were expressed as a percentage of the maximal response to histamine. The antagonism was determined as follows:
as §3

## COc1cccc(CNc2cnn(C3CCCC3)c(=O)c2Cl)c1 [Compound No. 3, 4-Chloro-5-(3-methoxybenzylamino)-2-cyclopentyl-3(2H)pyridazinone]
[1]
  inhibition at 10 µg/mL: 97%
[2]
  inhibition at 10 µg/mL: 82%
[3]
  Inhibition (%) of bronchoconstriction: 31%
[4]; i.p. 200 mg/kg
  Lethal ratio (Death number/Experimental number): 0/2
[4]; i.p. 400 mg/kg
  Lethal ratio (Death number/Experimental number): 0/1

## COc1ccc(CNc2cnn(CC(=O)O)c(=O)c2Cl)cc1OC [Compound No. 10, 4-Chloro-5-(3,4-dimethoxybenzylamino)-2-(carboxymethyl)-3(2H)pyridazinone]
[1]
  inhibition at 10 µg/mL: 29%
[2]
  inhibition at 10 µg/mL: 20%

## CCOc1cc(CNc2cnn(C)c(=O)c2Cl)ccc1OC [Compound No. 13]
[1]
  inhibition at 10 µg/mL: 81%
[2]
  inhibition at 10 µg/mL: 79%
[3]
  Inhibition (%) of bronchoconstriction: 19%
[4]; i.p. 200 mg/kg
  Lethal ratio (Death number/Experimental number): 0/2
[4]; i.p. 400 mg/kg
  Lethal ratio (Death number/Experimental number): 0/1

## CCCCOc1cc(CNc2cn[nH]c(=O)c2Br)ccc1OC [Compound No. 38]
[2]
  inhibition at 1 µg/mL: 80%
[5]; p.o. 30 mg/kg
  Inhibition (%) of bronchoconstriction: 53%
[6]; oral 400 mg/kg
  Lethal ratio (Death number/Experimental number): 0/3
[6]; oral 800 mg/kg
  Lethal ratio (Death number/Experimental number): 0/3

## CCCc1c(OCC(O)COc2ccc3c(=O)cc(C(=O)O)oc3c2CCC)ccc(C(C)=O)c1O (stereo not drawn) [FPL-55712, reference compound]
[1]
  inhibition at 10 µg/mL: 100%
[2]
  inhibition at 10 µg/mL: 97%
  inhibition at 1 µg/mL: 76%
[7]
  inhibition at 1 µg/mL: 94%
[3]
  Inhibition (%) of bronchoconstriction: 27%
[5]; p.o. 100 mg/kg
  Inhibition of bronchoconstriction (in words): No substantial inhibition

## CCOc1cc(CNc2cn[nH]c(=O)c2Br)ccc1OC [compound 36]
[2]
  inhibition at 1 µg/mL: 70%
[5]; p.o. 50 mg/kg
  Inhibition (%) of bronchoconstriction: 68%
